These results are taken from patent US20240100065A1, “METHODS FOR TREATING RECEPTOR-INTERACTING PROTEIN KINASE 1-MEDIATED DISEASES” (Genzyme Corporation, priority 2022, published 2024).

Like-named read-outs stand apart in the source and are kept apart here.

Data set [1] concerns the target T1, pS166-RIPK1 in human PBMC lysates (Homo sapiens, UniProt Q13546).
T1 construct: Human PBMC are a primary cell type that express endogenous RIPK kinase; endogenous in cells; host or cells: human PBMC isolated from blood of healthy participants
T1 sequence (Q13546 1-671): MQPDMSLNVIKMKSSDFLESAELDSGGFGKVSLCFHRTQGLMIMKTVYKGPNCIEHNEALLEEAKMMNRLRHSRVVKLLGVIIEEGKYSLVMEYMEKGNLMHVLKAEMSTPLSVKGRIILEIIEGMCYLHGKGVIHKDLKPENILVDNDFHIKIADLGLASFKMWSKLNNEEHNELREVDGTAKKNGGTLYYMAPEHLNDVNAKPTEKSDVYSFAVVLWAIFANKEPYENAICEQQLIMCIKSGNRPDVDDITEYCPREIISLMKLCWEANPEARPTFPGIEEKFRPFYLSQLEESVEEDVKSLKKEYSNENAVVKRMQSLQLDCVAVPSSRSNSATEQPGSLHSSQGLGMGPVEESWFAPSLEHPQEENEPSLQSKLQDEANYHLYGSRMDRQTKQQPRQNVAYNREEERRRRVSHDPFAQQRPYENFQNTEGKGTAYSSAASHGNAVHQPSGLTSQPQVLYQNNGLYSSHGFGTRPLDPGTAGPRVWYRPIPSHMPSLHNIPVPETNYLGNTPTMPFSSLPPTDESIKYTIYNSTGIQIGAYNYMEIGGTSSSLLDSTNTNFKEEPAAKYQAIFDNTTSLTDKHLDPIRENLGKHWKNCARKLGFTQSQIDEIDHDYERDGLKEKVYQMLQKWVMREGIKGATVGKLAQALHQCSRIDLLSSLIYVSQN
Briefly: Inhibition of pS166-RIPK1 in PBMC lysates (peripheral target engagement). In kind it is in vivo. The conditions noted are these: for pS166-RIPK1 percent change from baseline: Day15-T24h. The source says: Activity of RIPK1 when stimulated can be detected by an increase in autophosphorylation at serine 166 in the RIPK1 protein. Human PBMC are a primary cell type that express endogenous RIPK kinase. Therefore, the ability of Compound 1 to inhibit RIPK1 kinase activity, as measured by the inhibition of pS166-RIPK1 in prepared PBMC lysates isolated from blood samples, was investigated to assess the peripheral target engagement; pS166-RIPK1 levels in human PBMC lysates and percentage of change from baseline were calculated. In Part 1a study, six blood samples (at pre-dose, at 1, 3, 5, 8 hours on Day 1, and at 24 hours on Day 2) for pS166-RIPK1 level were collected per participant. In Part 2 study, blood samples were collected at timepoint (predose/baseline, D7 and D14 T0 (prior to dosing), at the followings timepoints at D14: T1h, T3H, T6H, T8h, then at D15/T24H and D16/T48H. Interquartile range (IQR: Q1-Q3) and geometric mean were added to the usual descriptive statistics.
Levels of pS166-RIPK1 and percentage of change from baseline were summarized descriptively by dose level group and time point. PD population includes participants included in the safety population with no major or critical deviations related to IMP and/or pharmacodynamic (PD) measurements, for whom the PD data are considered sufficient and interpretable will be included in the pharmacodynamic population. Scatterplots were provided for pS166-RIPK1 data versus PK plasma concentration in the PK/PD population. For each participant, the percent change compared to their baseline was evaluated at multiple timepoints up to 24 hours in Part 1a and up to 48 hours in Part 2.
The amount of phosphorylation at serine 166 in RIPK1 protein (pS166-RIPK1) was measured in PBMC lysates prepared from blood samples. Variability in baseline values between individuals was observed across the treatment groups. For each participant, the percent change compared to their baseline was evaluated at multiple timepoints. A negative value for percent change indicates an inhibition of phosphorylation of RIPK1 at-serine166 (pS166-RIPK1).

The subject of a further data set is CYP3A4. The data set can be described thus: Plasma 4β-hydroxycholesterol Day 14/Day 1 ratio (CYP3A4 induction). It is filed as in vivo, human. The conditions noted are these: repeated doses up to 20 mg BID, 14 days. How it is done: The plasma 4β-hydroxycholesterol on Day 14 versus Day 1 pre-dose concentration ratios were calculated to evaluate the potential for CYP3A4 enzyme induction by Compound 1 after repeated doses in Part 2.
PK population included all participants exposed to Compound 1 with no major or critical deviations related to Compound 1 and for whom PK data were considered sufficient and interpretable. PK parameters were summarized by descriptive statistics for each dose level group. Distribution of Tmax values was represented by histogram plots for each dose level group. In Part 1a, dose proportionality was assessed using a linear model on Cmax, AUClast and AUC. […] Steady state was assessed on Ctrough using a non-linear model. Accumulation was assessed using a linear model on log-transformed accumulation ratio. Dose proportionality was assessed using a power model on Cmax and AUCtau on Day 1 and Day 14, separately. […] In Part 1b, CSF concentration was described by dose level group and CSF to plasma unbound concentration ratios calculated were described in the same way. 4β-hydroxycholesterol on Day 14 versus Day 1 pre-dose concentration ratios were summarized using descriptive statistics by dose level group and point estimates with 90% confidence interval (90% CI) for the geometric mean of the log-transformed Day14/Day1 ratio was calculated in Part 2. […]

In the case of `CC(C)(C(=O)N1CCOc2c(C#N)cncc2C1)C(F)F` [Compound 1, 4-(3,3-difluoro-2,2-dimethyl-propanoyl)-3,5-dihydro-2H-pyrido[3,4-f] [1,4]oxazepine-9-carbonitrile], the “Median inhibition of pS166-RIPK1” value is reported as 90.43% in data set [1] (Part 1a 20 mg, 1 hr post dose); 80.16% in data set [1] (Part 1a 30 mg, 24 hours post dose, one replicate); “greater than 80%” in data set [1] (Part 1a, all dose groups (10, 20, 30, 40 mg), 1 hour up to 5 hours post dose). In data set [1] (Part 1a 20 mg, 5 hrs), the “Median inhibition of pS166-RIPK1, peak” value was found to be 96.63%. For the same compound, in data set [1] (Part 1a 20 mg, over 24 hours), the “Median inhibition of pS166-RIPK1, maintained” value is “greater than 94%”. For the same compound, the “Peak median inhibition of pS166-RIPK1” value in data set [1] (Part 1a 30 mg, 3 hr, one replicate) is 91.48%; in data set [1] (Part 1a 40 mg, 1 hr post dose, 4 participants), 86.69%. The “pS166-RIPK1 percent change from baseline” value in data set [1] (Part 2, 15 mg BID) is reported as −80.29%; in data set [1] (Part 2, 20 mg BID) it was −97.76%. Further, in data set [1] (Part 2, all dose level groups (10 mg QD to 20 mg BID), Ctrough Day 7 up to 24 hours post-last dosing), the “Inhibition of pS166-RIPK1” value is listed as roughly 90%. Besides, in data set [1] (Part 2 Day 14, 10 mg QD, 6 hours post-last morning dose, n=5, read-out: Median inhibition of pS166-RIPK1, maximal effect), the Emax at 10 mg was 99%. Further, the Emax at 15 mg in data set [1] (Part 2 Day 14, 15 mg BID, 6 hours post-last morning dose, n=7, read-out: Median inhibition of pS166-RIPK1, maximal effect) was 92.8%. Moreover, the Emax at 20 mg in data set [1] (Part 2 Day 14, 20 mg BID, 8 hours post-last morning dose, n=3, read-out: Median inhibition of pS166-RIPK1, maximal effect) came to 99.2%; in data set [1] (Part 2 Day 14, 20 mg QD, 6 hours post-last morning dose, n=4, read-out: Median inhibition of pS166-RIPK1, maximal effect), 96.5%. This compound registered an EC90 in data set [1] (in vivo in PBMC) of 38 nM. Moreover, the “Potential for CYP3A4 induction” value with CYP3A4 was “no potential for CYP3A4 induction”.
